Tests used:
Assay in all cases: cells
Conditions in all cases: Homo sapiens
ACN = type: functional, cell-based;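 note: growth inhibition of the human ACN cell line, read out via cell viability testing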
Description: SANGER: Inhibition of human ACN cell growth in a cell viability assay.

SF-539 = type: functional, cell-based;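 note: Read-out is a cell viability assay, with IC50 reflecting inhibition of cell growth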
Description: SANGER: Inhibition of human SF539 cell growth in a cell viability assay.

A498 = type: functional, cell-based;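 note: growth inhibition of human A498 cells, read out with a cell viability assay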
Description: SANGER: Inhibition of human A498 cell growth in a cell viability assay.

NMC-G1 = type: functional, cell-based;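 note: growth inhibition of the NMC-G1 cell line, measured with a cell viability read-out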
Description: SANGER: Inhibition of human NMC-G1 cell growth in a cell viability assay.

NH-12 = type: functional, cell-based;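 note: growth inhibition of NH-12 cells, read out with a cell viability assay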
Description: SANGER: Inhibition of human NH-12 cell growth in a cell viability assay.

COLO-829 = type: functional, cell-based
Description: SANGER: Inhibition of human COLO-829 cell growth in a cell viability assay.

ALL-PO = type: functional, cell-based;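 note: growth inhibition of ALL-PO cells, read out by a cell viability assay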
Description: SANGER: Inhibition of human ALL-PO cell growth in a cell viability assay.

NB13 = type: functional, cell-based;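 note: cell viability readout measuring growth inhibition of human NB13 cells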
Description: SANGER: Inhibition of human NB13 cell growth in a cell viability assay.

COR-L88 = type: functional, cell-based;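 note: growth inhibition of COR-L88 cells, read out with a cell viability assay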
Description: SANGER: Inhibition of human COR-L88 cell growth in a cell viability assay.

QIMR-WIL = type: functional, cell-based;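 note: growth inhibition of QIMR-WIL cells, read out with a cell viability assay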
Description: SANGER: Inhibition of human QIMR-WIL cell growth in a cell viability assay.

BV-173 = type: functional, cell-based
Description: SANGER: Inhibition of human BV-173 cell growth in a cell viability assay.

NCI-H23 = type: functional, cell-based;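 note: cell viability assay measuring growth inhibition of NCI-H23 cells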
Description: SANGER: Inhibition of human NCI-H23 cell growth in a cell viability assay.

D-502MG = type: functional, cell-based
Description: SANGER: Inhibition of human D-502MG cell growth in a cell viability assay.

NCI-H1581 = type: functional, cell-based;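 note: cell growth inhibition read out by a viability assay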
Description: SANGER: Inhibition of human NCI-H1581 cell growth in a cell viability assay.

CW-2 = type: functional, cell-based;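 note: growth inhibition of CW-2 cells, read out by a cell viability assay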
Description: SANGER: Inhibition of human CW-2 cell growth in a cell viability assay.

EW-16 = type: functional, cell-based;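 note: growth inhibition of human EW-16 cells, read out as cell viability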
Description: SANGER: Inhibition of human EW-16 cell growth in a cell viability assay.

KGN = type: functional, cell-based;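 note: growth inhibition of KGN cells, read out with a cell viability assay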
Description: SANGER: Inhibition of human KGN cell growth in a cell viability assay.

NCI-H226 = type: functional, cell-based;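 note: cell viability read-out used to gauge growth inhibition of the cells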
Description: SANGER: Inhibition of human NCI-H226 cell growth in a cell viability assay.

A3-KAW = type: functional, cell-based;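 note: growth inhibition of human A3-KAW cells, read out with a cell viability assay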
Description: SANGER: Inhibition of human A3-KAW cell growth in a cell viability assay.

CAS-1 = type: functional, cell-based;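 note: growth inhibition of CAS-1 cells, measured with a cell viability assay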
Description: SANGER: Inhibition of human CAS-1 cell growth in a cell viability assay.

EW-18 = type: functional, cell-based;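 note: growth inhibition of EW-18 cells, read out by a cell viability assay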
Description: SANGER: Inhibition of human EW-18 cell growth in a cell viability assay.

EW-3 = type: functional, cell-based;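 note: cell viability assay read-out, IC50 reflects inhibition of growth of the EW-3 cells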
Description: SANGER: Inhibition of human EW-3 cell growth in a cell viability assay.

U-87 MG = type: functional, cell-based, U-87MG ATCC;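 note: growth inhibition of the cells measured with a viability assay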
Description: SANGER: Inhibition of human U-87-MG cell growth in a cell viability assay.

A4-Fuk = type: functional, cell-based;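 note: growth inhibition of A4-Fuk cells, read out by a cell viability assay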
Description: SANGER: Inhibition of human A4-Fuk cell growth in a cell viability assay.

NCI-H209 = type: functional, cell-based;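 note: growth inhibition of human NCI-H209 cells, measured by a cell viability assay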
Description: SANGER: Inhibition of human NCI-H209 cell growth in a cell viability assay.

SJSA-1 = type: functional, cell-based;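 note: growth inhibition of human SJSA-1 cells, read out through a cell viability measurement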
Description: SANGER: Inhibition of human SJSA-1 cell growth in a cell viability assay.

LS-411N = type: functional, cell-based
SW872 = type: functional, cell-based;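 note: growth inhibition of SW872 cells, read out by a viability assay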
Description: SANGER: Inhibition of human SW872 cell growth in a cell viability assay.

MPP-89 = type: functional, cell-based;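 note: growth inhibition of human MPP-89 cells, read out with a cell viability assay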
Description: SANGER: Inhibition of human MPP-89 cell growth in a cell viability assay.

CTB-1 = type: functional, cell-based
Description: SANGER: Inhibition of human CTB-1 cell growth in a cell viability assay.

SW684 = type: functional, cell-based;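 note: growth inhibition of human SW684 cells, measured by a cell viability assay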
Description: SANGER: Inhibition of human SW684 cell growth in a cell viability assay.

8-MG-BA = type: functional, cell-based;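 note: growth inhibition of 8-MG-BA cells, read out with a cell viability assay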
Description: SANGER: Inhibition of human 8-MG-BA cell growth in a cell viability assay.

P30-OHK = type: functional, cell-based;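 note: growth inhibition of the P30-OHK cell line, read out with a cell viability assay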
Description: SANGER: Inhibition of human P30-OHK cell growth in a cell viability assay.

BB65-RCC = type: functional, cell-based;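 note: growth inhibition of the cell line, measured with a cell viability assay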
Description: SANGER: Inhibition of human BB65-RCC cell growth in a cell viability assay.

LC-2-ad = type: functional, cell-based;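 note: growth inhibition of human LC-2-ad cells, read out with a cell viability assay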
Description: SANGER: Inhibition of human LC-2-ad cell growth in a cell viability assay.

HCE-4 = type: functional, cell-based;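 note: cell viability assay measuring inhibition of growth in the human HCE-4 cell line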
Description: SANGER: Inhibition of human HCE-4 cell growth in a cell viability assay.

HOP-62 = type: functional, cell-based;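 note: cell growth inhibition determined with a viability assay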
Description: SANGER: Inhibition of human HOP-62 cell growth in a cell viability assay.

D283 Med = type: functional, cell-based
Description: SANGER: Inhibition of human D-283MED cell growth in a cell viability assay.

HCE-T = type: functional, cell-based;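 note: cell viability assay read-out, reporting inhibition of HCE-T cell growth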
Description: SANGER: Inhibition of human HCE-T cell growth in a cell viability assay.

TE-11 = type: functional, cell-based;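 note: growth inhibition of human TE-11 cells, read out by a cell viability assay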
Description: SANGER: Inhibition of human TE-11 cell growth in a cell viability assay.

ML-2 = type: functional, cell-based;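 note: growth inhibition of ML-2 cells, measured with a cell viability readout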
Description: SANGER: Inhibition of human ML-2 cell growth in a cell viability assay.

KM12 = type: functional, cell-based;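 note: KM12 cell growth inhibition, read out with a cell viability assay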
Description: SANGER: Inhibition of human KM12 cell growth in a cell viability assay.

LS-123 = type: functional, cell-based
Description: SANGER: Inhibition of human LS-123 cell growth in a cell viability assay.

NB69 = type: functional, cell-based;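 note: growth inhibition of NB69 cells, determined by a cell viability assay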
Description: SANGER: Inhibition of human NB69 cell growth in a cell viability assay.

MFH-ino = type: functional, cell-based;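 note: growth inhibition of human MFH-ino cells, read out by a cell viability assay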
Description: SANGER: Inhibition of human MFH-ino cell growth in a cell viability assay.

LB2241-RCC = type: functional, cell-based;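 note: cell viability assay measuring how strongly the cultured human renal carcinoma line is prevented from growing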
Description: SANGER: Inhibition of human LB2241-RCC cell growth in a cell viability assay.

PSN1 = type: functional, cell-based;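 note: suppression of growth of human PSN1 cells, read out by a cell viability assay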
Description: SANGER: Inhibition of human PSN1 cell growth in a cell viability assay.

NCI-H2126 = type: functional, cell-based;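 note: growth inhibition of the cancer cell line, determined with a cell viability readout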
Description: SANGER: Inhibition of human NCI-H2126 cell growth in a cell viability assay.

SNU-5 = type: functional, cell-based;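 note: cell viability readout used to measure growth inhibition in human NCI-SNU-5 cells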
Description: SANGER: Inhibition of human NCI-SNU-5 cell growth in a cell viability assay.

K5 = type: functional, cell-based
Description: SANGER: Inhibition of human K5 cell growth in a cell viability assay.

DOHH-2 = type: functional, cell-based;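 note: growth inhibition of human DOHH-2 cells, read out with a cell viability assay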
Description: SANGER: Inhibition of human DOHH-2 cell growth in a cell viability assay.

OS-RC-2 = type: functional, cell-based;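 note: growth inhibition of human OS-RC-2 cells, measured by a cell viability assay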
Description: SANGER: Inhibition of human OS-RC-2 cell growth in a cell viability assay.

ES7 = type: functional, cell-based;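 note: growth inhibition of cultured human ES7 cells, read out as cell viability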
Description: SANGER: Inhibition of human ES7 cell growth in a cell viability assay.

EM-2 = type: functional, cell-based;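 note: growth inhibition of EM-2 cells, read out with a cell viability assay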
Description: SANGER: Inhibition of human EM-2 cell growth in a cell viability assay.

TE-1 = type: functional, cell-based
Description: SANGER: Inhibition of human TE-1 cell growth in a cell viability assay.

LU-139 = type: functional, cell-based
Description: SANGER: Inhibition of human LU-139 cell growth in a cell viability assay.

LS-1034 = type: functional, cell-based
Description: SANGER: Inhibition of human LS-1034 cell growth in a cell viability assay.

IA-LM = type: functional, cell-based;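 note: cell viability assay measuring growth inhibition of human IA-LM cells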
Description: SANGER: Inhibition of human IA-LM cell growth in a cell viability assay.

HT-144 = type: functional, cell-based
Description: SANGER: Inhibition of human HT-144 cell growth in a cell viability assay.

SK-LMS-1 = type: functional, cell-based;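 note: growth inhibition of human SK-LMS-1 cells, read out with a cell viability assay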
Description: SANGER: Inhibition of human SK-LMS-1 cell growth in a cell viability assay.

COLO-668 = type: functional, cell-based
Description: SANGER: Inhibition of human COLO-668 cell growth in a cell viability assay.

EW-1 = type: functional, cell-based
Description: SANGER: Inhibition of human EW-1 cell growth in a cell viability assay.

TE-8 = type: functional, cell-based;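 note: growth inhibition of TE-8 cells, measured with a cell viability readout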
Description: SANGER: Inhibition of human TE-8 cell growth in a cell viability assay.

MHH-NB-11 = type: functional, cell-based;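 note: growth inhibition of human MHH-NB-11 cells, read out by a cell viability assay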
Description: SANGER: Inhibition of human MHH-NB-11 cell growth in a cell viability assay.

LB771-HNC = type: functional, cell-based
Description: SANGER: Inhibition of human LB771-HNC cell growth in a cell viability assay.

BB30-HNC = type: functional, cell-based
Description: SANGER: Inhibition of human BB30-HNC cell growth in a cell viability assay.

`O=c1[nH]c2ccccc2n1C1CCN(Cc2ccc(-c3nc4cc5[nH]cnc5cc4nc3-c3ccccc3)cc2)CC1` showed an IC50 (ACN) of over 2.56 µM, an IC50 (SF-539) of over 2.56 µM and an IC50 (A498) of 1.08 µM. It also gave an IC50 (NMC-G1) of over 2.56 µM, an IC50 (NH-12) of 0.609 µM and an IC50 (COLO-829) of over 2.56 µM. It also gave an IC50 (ALL-PO) of over 2.56 µM, an IC50 (NB13) of over 2.56 µM and an IC50 (COR-L88) of over 2.56 µM. It also gave an IC50 (QIMR-WIL) of over 2.56 µM, an IC50 (BV-173) of over 2.56 µM and an IC50 (NCI-H23) of over 2.56 µM. For the same compound, the IC50 (D-502MG) was over 2.56 µM, the IC50 (NCI-H1581) was over 2.56 µM and the IC50 (CW-2) was over 2.56 µM. It also gave an IC50 (EW-16) of over 2.56 µM, an IC50 (KGN) of over 2.56 µM and an IC50 (NCI-H226) of over 2.56 µM. For the same compound, the IC50 (A3-KAW) was over 2.56 µM, the IC50 (CAS-1) was over 2.56 µM and the IC50 (EW-18) was over 2.56 µM. The IC50 (EW-3) was over 2.56 µM, the IC50 (U-87 MG) was over 2.56 µM and the IC50 (A4-Fuk) was 1.86 µM. It also gave an IC50 (NCI-H209) of over 2.56 µM, an IC50 (SJSA-1) of over 2.56 µM and an IC50 (LS-411N) of 1.25 µM. The IC50 (SW872) was over 2.56 µM, the IC50 (MPP-89) was over 2.56 µM and the IC50 (CTB-1) was over 2.56 µM. For the same compound, the IC50 (SW684) was over 2.56 µM, the IC50 (8-MG-BA) was over 2.56 µM and the IC50 (P30-OHK) was over 2.56 µM. It also gave an IC50 (BB65-RCC) of over 2.56 µM, an IC50 (LC-2-ad) of over 2.56 µM and an IC50 (HCE-4) of over 2.56 µM. For the same compound, the IC50 (HOP-62) was over 2.56 µM, the IC50 (D283 Med) was over 2.56 µM and the IC50 (HCE-T) was over 2.56 µM. For the same compound, the IC50 (TE-11) was over 2.56 µM, the IC50 (ML-2) was over 2.56 µM and the IC50 (KM12) was over 2.56 µM. For the same compound, the IC50 (LS-123) was over 2.56 µM, the IC50 (NB69) was over 2.56 µM and the IC50 (MFH-ino) was over 2.56 µM. For the same compound, the IC50 (LB2241-RCC) was over 2.56 µM, the IC50 (PSN1) was over 2.56 µM and the IC50 (NCI-H2126) was over 2.56 µM. For the same compound, the IC50 (SNU-5) was over 2.56 µM, the IC50 (K5) was over 2.56 µM and the IC50 (DOHH-2) was over 2.56 µM. It also gave an IC50 (OS-RC-2) of over 2.56 µM, an IC50 (ES7) of 1.35 µM and an IC50 (EM-2) of over 2.56 µM. The IC50 (TE-1) was over 2.56 µM, the IC50 (LU-139) was over 2.56 µM and the IC50 (LS-1034) was over 2.56 µM. For the same compound, the IC50 (IA-LM) was over 2.56 µM, the IC50 (HT-144) was over 2.56 µM and the IC50 (SK-LMS-1) was over 2.56 µM. It also gave an IC50 (COLO-668) of over 2.56 µM, an IC50 (EW-1) of over 2.56 µM and an IC50 (TE-8) of over 2.56 µM. For the same compound, the IC50 (MHH-NB-11) was over 2.56 µM, the IC50 (LB771-HNC) was over 2.56 µM and the IC50 (BB30-HNC) was over 2.56 µM.

`Fc1cc(-c2cc[nH]/c(=N/c3ccc(-n4cnc(N5CCOCC5)n4)cc3)n2)cc(N2CCOCC2)c1` gave an IC50 (ACN) of 0.0786 µM, an IC50 (SF-539) of 0.673 µM and an IC50 (A498) of 0.171 µM. It also gave an IC50 (NMC-G1) of 1.1 µM, an IC50 (NH-12) of 0.465 µM and an IC50 (COLO-829) of 0.52 µM. It also gave an IC50 (ALL-PO) of 0.671 µM, an IC50 (NB13) of 4.91 µM and an IC50 (COR-L88) of 2.57 µM. The IC50 (QIMR-WIL) was 0.343 µM, the IC50 (BV-173) was 0.736 µM and the IC50 (NCI-H23) was over 5.12 µM. For the same compound, the IC50 (D-502MG) was 1.05 µM, the IC50 (NCI-H1581) was 1.34 µM and the IC50 (CW-2) was over 5.12 µM. For the same compound, the IC50 (EW-16) was 0.451 µM, the IC50 (KGN) was 0.227 µM and the IC50 (NCI-H226) was 1.43 µM. It also gave an IC50 (A3-KAW) of 0.294 µM, an IC50 (CAS-1) of 2.23 µM and an IC50 (EW-18) of 0.857 µM. The IC50 (EW-3) was 4.23 µM, the IC50 (U-87 MG) was 2.73 µM and the IC50 (A4-Fuk) was 0.972 µM. The IC50 (NCI-H209) was 1.26 µM, the IC50 (SJSA-1) was 0.251 µM and the IC50 (LS-411N) was 0.198 µM. It also gave an IC50 (SW872) of 0.539 µM, an IC50 (MPP-89) of 3.82 µM and an IC50 (CTB-1) of 1.11 µM. For the same compound, the IC50 (SW684) was 3.04 µM, the IC50 (8-MG-BA) was 0.116 µM and the IC50 (P30-OHK) was 0.299 µM. The IC50 (BB65-RCC) was 0.924 µM, the IC50 (LC-2-ad) was 0.35 µM and the IC50 (HCE-4) was 0.903 µM. It also gave an IC50 (HOP-62) of 0.248 µM, an IC50 (D283 Med) of 2.56 µM and an IC50 (HCE-T) of 2.79 µM. It also gave an IC50 (TE-11) of 2.39 µM, an IC50 (ML-2) of 0.702 µM and an IC50 (KM12) of 0.212 µM. The IC50 (LS-123) was 1.25 µM, the IC50 (NB69) was 1.43 µM and the IC50 (MFH-ino) was 1.04 µM. It also gave an IC50 (LB2241-RCC) of 0.733 µM, an IC50 (PSN1) of over 5.12 µM and an IC50 (NCI-H2126) of 0.536 µM. For the same compound, the IC50 (SNU-5) was over 5.12 µM, the IC50 (K5) was 0.83 µM and the IC50 (DOHH-2) was 0.715 µM. For the same compound, the IC50 (OS-RC-2) was 0.39 µM, the IC50 (ES7) was 0.325 µM and the IC50 (EM-2) was 1.15 µM. For the same compound, the IC50 (TE-1) was over 5.12 µM, the IC50 (LU-139) was 1.97 µM and the IC50 (LS-1034) was 1.92 µM. The IC50 (IA-LM) was 0.371 µM, the IC50 (HT-144) was 0.147 µM and the IC50 (SK-LMS-1) was 0.453 µM. It also gave an IC50 (COLO-668) of 0.376 µM, an IC50 (EW-1) of 0.546 µM and an IC50 (TE-8) of 0.831 µM. It also gave an IC50 (MHH-NB-11) of 0.936 µM, an IC50 (LB771-HNC) of 0.0777 µM and an IC50 (BB30-HNC) of 0.122 µM.

From ChEMBL document CHEMBL1201861, “Genomics of Drug Sensitity in Cancer screening data, Wellcome Trust Sanger Institute”
